The values below come from US20260069539A1, “LIPIDOID COMPOUNDS AND RELATED COMPOSITIONS AND USES” (Poseida Therapeutics, Inc., priority 2023, published 2026).

This experiment deals with liver cells. Description: In vivo LNP delivery of fLuciferase mRNA, bioluminescent imaging (BLI) at 4 hr. The arrangement: species or system BALB/C mice. Conditions: for Total Flux: 0.5 mg/kg fLuciferase mRNA intravenous, BLI at 4 hr; for Mean Luciferase Flux: 0.5 mg/kg fLuc mRNA i.v., 4 hr. As for the experimental part:
Adult female BALB/C mice (n=3/group) were intravenously administered 0.5 mg/kg of 5′-CleanCap—fLuciferase mRNA (TriLink Biotech) formulated with the LNP compositions shown in Table 6. One group of mice was treated with vehicle (PBS, Thermo Fisher Scientific, USA) as a negative control.
The location and extent of luciferase expression in treated and control mice were determined at 4 hr for mRNA and 48 hr for DNA by bioluminescent imaging (BLI) of anesthetized mice using an IVIS Lumina in vivo imaging system (Perkin Elmer) according to the manufacturer's instructions. Briefly, mice were anesthetized using isoflurane in oxygen, and placed supine on a heated stage. Mice were then administered D-luciferin (Perkin-Elmer #122799) IP, and BLI was performed.
(§1) The location and extent of luciferase expression in treated and control mice were determined at 4 hr by bioluminescent imaging (BLI) of anesthetized mice using an IVIS Lumina in vivo imaging system (Perkin Elmer) according to the manufacturer's instructions. Briefly, mice were anesthetized using isoflurane in oxygen, and placed supine on a heated stage. Mice were then administered D-luciferin (Perkin-Elmer #122799) IP, and BLI was performed.
as §1
The location and extent of luciferase expression in treated and control mice were determined at 4 hr by bioluminescent imaging (BLI) of anesthetized mice using an IVIS Lumina in vivo imaging system (Perkin Elmer) according to the manufacturer's instructions.
Briefly, mice were anesthetized using isoflurane in oxygen, and placed supine on a heated stage. Mice were then administered D-luciferin (Perkin-Elmer #122799) IP, and BLI was performed.
as §1

Setting [1] is: Example 104, experiment of Table 63.
Where [2] appears, read: LNP with 40.75 % moles of the compound (DOPC 5.0/Chol 51.75/PEG-DMG 2.5, Lipid:RNA 100).
The mark [3] stands for this setting: LNP with 43.17 % moles of the compound (DOPC 11.96/Chol 43.17/PEG-DMG 1.7, Lipid:RNA 100).
Setting [4] is: LNP with 54.0 % moles of the compound (DOPC 10.0/Chol 35.0/PEG-DMG 1.0, Lipid:RNA 100).
Where [5] appears, read: Table 13 experiment, LNP with 50 % moles of the compound (DOPC 10/Chol 38.5/PEG-DMG 1.5, Lipid:RNA 80).

Regarding `CCCCC[C@H]1CC[C@H](C(=O)OCC(COC(=O)CCCCCN(CCCCCC(=O)OCC(COC(=O)[C@H]2CC[C@H](CCCCC)CC2)COC(=O)[C@H]2CC[C@H](CCCCC)CC2)CC(C)O)COC(=O)[C@H]2CC[C@H](CCCCC)CC2)CC1` (mixture of isomers) [COMPOUND NO. 55], under setting [1], the “Total Flux” value stood at 7.89E+10 p/s.
Consider `CCCCC[C@H]1CC[C@H](C(=O)OCC(COC(=O)CCCCCN(CCCCCC(=O)OCC(COC(=O)[C@H]2CC[C@H](CCCCC)CC2)COC(=O)[C@H]2CC[C@H](CCCCC)CC2)CC(O)CO)COC(=O)[C@H]2CC[C@H](CCCCC)CC2)CC1` (mixture of isomers) [COMPOUND NO. 59], for which, for the setting “Example 104, experiment of Table 64”, the “Total Flux” value came to 1.06E+11 p/s.
As to `CC(C)CCCC1CCC(COC(=O)CCN(CCCN(C)CCCN(CCC(=O)OCC2CCC(CCCC(C)C)CC2)CCC(=O)OCC2CCC(CCCC(C)C)CC2)CCC(=O)OCC2CCC(CCCC(C)C)CC2)CC1` (stereo not drawn) [COMPOUND NO. 1], the “Mean Luciferase Flux” value is listed as 8.79E+09 p/s under setting [2], 1.01E+10 p/s under setting [3] and 6.15E+08 p/s under setting [4].
Take `CN(CCCN(CCC(=O)OCC1CCC(CCCCC2CCCCC2)CC1)CCC(=O)OCC1CCC(CCCCC2CCCCC2)CC1)CCCN(CCC(=O)OCC1CCC(CCCCC2CCCCC2)CC1)CCC(=O)OCC1CCC(CCCCC2CCCCC2)CC1` (stereo not drawn) [COMPOUND NO. 2]: the “Mean Luciferase Flux” value under setting [2] is on record as 2.53E+07 p/s.
For the compound `CN(CCCN(CCC(=O)OCCOC(=O)CCCCC1CCCCC1)CCC(=O)OCCOC(=O)CCCCC1CCCCC1)CCCN(CCC(=O)OCCOC(=O)CCCCC1CCCCC1)CCC(=O)OCCOC(=O)CCCCC1CCCCC1` [COMPOUND NO. 5], the “Mean Luciferase Flux” value is 2.84E+11 p/s under setting [2], 7.16E+10 p/s under setting [3] and 7.25E+08 p/s under setting [4].
Taken in the same sequence, the figures for `CN(CCN(CCC(=O)OCCOC(=O)CCCCC1CCCCC1)CCC(=O)OCCOC(=O)CCCCC1CCCCC1)CCN(CCC(=O)OCCOC(=O)CCCCC1CCCCC1)CCC(=O)OCCOC(=O)CCCCC1CCCCC1` [COMPOUND NO. 6] were 1.78E+11 p/s, 3.23E+10 p/s and 4.58E+10 p/s.
Take `CC(C)CCCC(=O)OCC1CCC(COC(=O)CCN(CCCN(C)CCCN(CCC(=O)OCC2CCC(COC(=O)CCCC(C)C)CC2)CCC(=O)OCC2CCC(COC(=O)CCCC(C)C)CC2)CCC(=O)OCC2CCC(COC(=O)CCCC(C)C)CC2)CC1` (stereo not drawn) [COMPOUND NO. 7]: the “Mean Luciferase Flux” value under setting [2] was 6.41E+10 p/s, the “Mean Luciferase Flux” value under setting [3] came to 1.84E+11 p/s and the “Mean Luciferase Flux” value under setting [4] is 1.55E+11 p/s.
For `CCCCCC(=O)OCC1CCC(COC(=O)CCN(CCCN(C)CCCN(CCC(=O)OCC2CCC(COC(=O)CCCCC)CC2)CCC(=O)OCC2CCC(COC(=O)CCCCC)CC2)CCC(=O)OCC2CCC(COC(=O)CCCCC)CC2)CC1` (stereo not drawn) [COMPOUND NO. 8] the same measures were 1.27E+11 p/s, 3.31E+11 p/s and 2.33E+11 p/s.
As to `CCCCC[C@H]1CC[C@H](C(=O)OCCCCCN(CCO)CCCOC(=O)[C@H]2CC[C@H](CCCCC)CC2)CC1` [COMPOUND NO. 21], the “Mean Luciferase Flux” value under setting [5] came to 1.27E+08 p/s.
Regarding `CCCCC[C@H]1CC[C@H](C(=O)OCCCCCN(CCCO)CCCOC(=O)[C@H]2CC[C@H](CCCCC)CC2)CC1` [COMPOUND NO. 22], under setting [5], the “Mean Luciferase Flux” value stood at 2.31E+07 p/s.
On the same count and under the same terms, for `CCCCC[C@H]1CC[C@H](C(=O)OCCCCCCCN(CCO)CCCCCCCOC(=O)[C@H]2CC[C@H](CCCCC)CC2)CC1` [COMPOUND NO. 24] the value was 3.46E+06 p/s; for `CCCCCCCCC(CCCCCC)C(=O)O[C@H]1CC[C@H](OC(=O)CCCCCN(CCO)CCCCCC(=O)O[C@H]2CC[C@H](OC(=O)C(CCCCCC)CCCCCCCC)CC2)CC1` (stereo partly drawn) [COMPOUND NO. 27], 1.10E+10 p/s; for `CCCCCCCCC(CCCCCC)C(=O)O[C@H]1CC[C@H](OC(=O)CCCCCN(CCCO)CCCCCC(=O)O[C@H]2CC[C@H](OC(=O)C(CCCCCC)CCCCCCCC)CC2)CC1` (stereo partly drawn) [COMPOUND NO. 28], 3.28E+10 p/s.
Still for that read-out and setting: then `CCCCCCCCC(CCCCCCCC)OC(=O)[C@H]1CC[C@H](C(=O)OCCCCCN(CCO)CCCCCOC(=O)[C@H]2CC[C@H](C(=O)OC(CCCCCCCC)CCCCCCCC)CC2)CC1` [COMPOUND NO. 30], with 2.54E+10 p/s; and `CCCCCCCCC(CCCCCCCC)OC(=O)[C@H]1CC[C@H](C(=O)OCCCCCN(CCCO)CCCCCOC(=O)[C@H]2CC[C@H](C(=O)OC(CCCCCCCC)CCCCCCCC)CC2)CC1` [COMPOUND NO. 31], with 1.00E+10 p/s; and `CCCCCCCCC(CCCCCCCC)OC(=O)[C@H]1CC[C@H](C(=O)OCCCCCN(CCCCO)CCCCCOC(=O)[C@H]2CC[C@H](C(=O)OC(CCCCCCCC)CCCCCCCC)CC2)CC1` [COMPOUND NO. 32], with 7.76E+09 p/s.
The same measure, in the same setting: for `CCCCCCCCC(CCCCCC)C(=O)OC1CCC(OC(=O)CCCCCN(CCO)CCCCCCCOC(=O)C2CCC(CCCCC)CC2)CC1` (stereo not drawn) [COMPOUND NO. 33] the value was 1.73E+10 p/s.
Regarding `CCCCCCCCC(CCCCCCCC)OC(=O)C1CCC(C(=O)OCCCCCN(CCO)CCCCCCCOC(=O)C2CCC(CCCCC)CC2)CC1` (stereo not drawn) [COMPOUND NO. 34], the “Mean Luciferase Flux” value under setting [5] amounted to 1.87E+10 p/s.
On to `CCCCC[C@H]1CC[C@H](C(=O)CCCCN(CCCOC(=O)[C@H]2CC[C@H](CCCCC)CC2)CCCN(C)CCCN(CCCOC(=O)[C@H]2CC[C@H](CCCCC)CC2)CCCOC(=O)[C@H]2CC[C@H](CCCCC)CC2)CC1` [COMPOUND NO. 35], for which the “Mean Luciferase Flux” value amounted to 2.35E+09 p/s (Table 13 experiment, first line of compound 35, printed 50 % moles (Table 12: 40.75 % moles, Lipid:RNA 80)) and 3.13E+09 p/s (Table 13 experiment, second line of compound 35, printed 50 % moles (Table 12: 40.75 % moles, Lipid:RNA 40)).
`CC(C)CCCC1CCC(COC(=O)C(CCCN(C)CCCC(C(=O)OCC2CCC(CCCC(C)C)CC2)C(=O)OCC2CCC(CCCC(C)C)CC2)C(=O)OCC2CCC(CCCC(C)C)CC2)CC1` (stereo not drawn) [COMPOUND NO. 43]: the “Mean Luciferase Flux” value (Table 14 experiment, LNP with 40.75 % moles of the compound (Lipid:RNA 40)) is given as 1.12E+09 p/s and the “Mean Luciferase Flux” value (Table 14 experiment, LNP with 50 % moles of the compound (Lipid:RNA 80)) was determined as 1.10E+09 p/s.
Regarding `CCCCC(CC)CCCCOC(=O)C(CCCN(CCCO)CCCC(C(=O)OCCCCC1CCCCC1)C(=O)OCCCCC1CCCCC1)C(=O)OCCCCC1CCCCC1` (stereo not drawn) [COMPOUND NO. 44], the “Total Flux” value under setting [1] is 5.73E+08 p/s.
Same read-out and setting: then `O=C(OCCCCC1CCCCC1)C(CCCCCCN(CCCO)CCCCCCC(C(=O)OCCCCC1CCCCC1)C(=O)OCCCCC1CCCCC1)C(=O)OCCCCC1CCCCC1` [COMPOUND NO. 45], with 2.42E+10 p/s; and `CCCCCC(=O)OCC1CCC(COC(=O)C(CCCN(CCCO)CCCC(C(=O)OCC2CCC(COC(=O)CCCCC)CC2)C(=O)OCC2CCC(COC(=O)CCCCC)CC2)C(=O)OCC2CCC(COC(=O)CCCCC)CC2)CC1` (stereo not drawn) [COMPOUND NO. 49], with 2.00E+11 p/s; and `CCCCC[C@H]1CC[C@H](C(=O)OCC(COC(=O)CCCCCN(CCCCCO)CCCCCC(=O)OCC(COC(=O)[C@H]2CC[C@H](CCCCC)CC2)COC(=O)[C@H]2CC[C@H](CCCCC)CC2)COC(=O)[C@H]2CC[C@H](CCCCC)CC2)CC1` [COMPOUND NO. 51], with 2.65E+10 p/s.
On to `CCCCC[C@H]1CC[C@H](C(=O)OCC(COC(=O)CCCCCN(CCCCCCO)CCCCCC(=O)OCC(COC(=O)[C@H]2CC[C@H](CCCCC)CC2)COC(=O)[C@H]2CC[C@H](CCCCC)CC2)COC(=O)[C@H]2CC[C@H](CCCCC)CC2)CC1` [COMPOUND NO. 52], for which the “Total Flux” value under setting [1] amounted to 1.81E+11 p/s.
Take `CCCCC[C@H]1CC[C@H](C(=O)OCC(COC(=O)CCCCCN(CCCCCC(=O)OCC(COC(=O)[C@H]2CC[C@H](CCCCC)CC2)COC(=O)[C@H]2CC[C@H](CCCCC)CC2)[C@H]2CC[C@H](CO)CC2)COC(=O)[C@H]2CC[C@H](CCCCC)CC2)CC1` [COMPOUND NO. 54]: the “Total Flux” value under setting [1] amounted to 1.30E+11 p/s.
For `CCCCC[C@H]1CC[C@H](C(=O)OCC(COC(=O)CCCCCN(CCCCCC(=O)OCC(COC(=O)[C@H]2CC[C@H](CCCCC)CC2)COC(=O)[C@H]2CC[C@H](CCCCC)CC2)C[C@H](C)O)COC(=O)[C@H]2CC[C@H](CCCCC)CC2)CC1` [COMPOUND NO. 56], the “Total Flux” value under setting [1] is 9.88E+10 p/s.
